Drawing on US11655246B2, “Aminothiazole compounds as inhibitors of CTPS1” (STEP PHARMA S.A.S., priority 2017, dated 2023), this text covers IC50 for 30 compounds.

Where a name gives a salt, the structure may show the parent alone.

In one experiment the target is T1, human CTPS1 (Homo sapiens, UniProt P17812).
T1 construct: purchased Proteros biostructures GmbH
T1 sequence (P17812 1-591): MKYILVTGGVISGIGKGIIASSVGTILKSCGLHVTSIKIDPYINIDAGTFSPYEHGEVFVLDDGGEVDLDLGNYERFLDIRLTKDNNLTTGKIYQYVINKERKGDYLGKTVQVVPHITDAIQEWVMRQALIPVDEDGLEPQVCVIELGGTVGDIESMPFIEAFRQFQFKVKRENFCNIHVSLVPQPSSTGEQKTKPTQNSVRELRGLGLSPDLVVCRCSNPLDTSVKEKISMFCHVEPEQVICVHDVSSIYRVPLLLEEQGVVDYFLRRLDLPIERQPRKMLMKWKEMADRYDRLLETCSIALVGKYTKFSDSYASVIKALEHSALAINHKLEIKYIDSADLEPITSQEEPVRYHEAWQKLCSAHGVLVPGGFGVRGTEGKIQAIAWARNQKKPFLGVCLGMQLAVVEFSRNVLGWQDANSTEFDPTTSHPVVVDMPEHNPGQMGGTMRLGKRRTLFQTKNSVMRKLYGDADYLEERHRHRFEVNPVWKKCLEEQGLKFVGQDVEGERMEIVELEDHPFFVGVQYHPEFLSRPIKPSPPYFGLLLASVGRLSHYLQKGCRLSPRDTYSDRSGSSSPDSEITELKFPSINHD
The experiment is described as follows: Human CTPS1 enzyme inhibition (ADP-Glo Max assay). The experiment is classed as biochemical. Conditions: Table 17, 25° C., read-out: CTPS1 (Human CTPS1 Enzyme Inhibition data grouped by potency range). As for the experimental part: The enzyme inhibitory activities of compounds invented against the target of interest were determined using the ADP-Glo™ Max assay (Promega, UK). Assays for human CTPS1 were performed in 1× assay buffer containing 50 mM Tris, 10 mM MgCl2, 0.01% Tween-20, pH to 8.0 accordingly. Finally, immediately before use, L-cysteine was added to the 1× assay buffer to a final concentration of 2 mM. All reagents are from Sigma-Aldrich unless specified otherwise.
3× human CTPS1 protein was prepared in 1× assay buffer to the final working protein concentration required for the reaction. A 2 uL volume per well of 3× human CTPS1 protein was mixed with 2 uL per well of 3× test compound (compound prepared in 1× assay buffer to an appropriate final 3× compound concentration respective to the concentration response curve designed for the compounds under test) for 10 minutes at 25° C. […] ADP-Glo™ Max reagent was added for 60 minutes (6 uL per well) and subsequently ADP-Glo™ Max development reagent was added for 60 minutes (12 uL per well) prior to signal detection in a microplate reader (EnVision® Multilabel Reader, Perkin Elmer). Following each reagent addition over the course of the assay, assay plates were pulse centrifuged for 30 seconds at 500 rpm.
In all cases, the enzyme converts ATP to ADP and the ADP-Glo™ Max reagent subsequently depletes any remaining endogenous ATP in the reaction system. The ADP-Glo™ Max detection reagent converts the ADP that has been enzymatically produced back into ATP and using ATP as a substrate together with luciferin for the enzyme luciferase, light is generated which produces a detectable luminescence. […] The percentage inhibition produced by each concentration of compound was calculated using the equation shown below: […]
Background: In ADP-Glo the light output rises with the ADP produced.
As for `CCC(C(=O)Nc1ccc(-c2cccnc2)cc1)c1csc(NS(=O)(=O)C2CC2)n1` (racemic) [T5, 2-(2-(cyclopropanesulfonamido)thiazol-4-yl)-N-(4-(pyridin-3-yl)phenyl)butanamide], the IC50 is less than 100 nM.
In the case of `CCC(C(=O)Nc1ccc(-c2cncc(Cl)c2)cc1)c1csc(NS(=O)(=O)C2CC2)n1` (racemic) [T8, N-(4-(5-chloropyridin-3-yl)phenyl)-2-(2-(cyclopropanesulfonamido)thiazol-4-yl)butanamide], the IC50 was less than 100 nM.
As for `CC(C)C(C(=O)Nc1ccc(-c2cccnc2)cc1)c1csc(NS(=O)(=O)C2CC2)n1` (racemic) [T12, 2-(2-(cyclopropanesulfonamido)thiazol-4-yl)-3-methyl-N-(4-(pyridin-3-yl)phenyl)butanamide], the IC50 lay in the range of 100 to 1000 nM.
`CCC(C(=O)Nc1ccc(-c2cccnc2)cc1)c1csc(NS(=O)(=O)C2CC2)n1` (single isomer, unassigned) [T6, 2-(2-(cyclopropanesulfonamido)thiazol-4-yl)-N-(4-(pyridin-3-yl)phenyl)butanamide.HCl]: the IC50 fell in the range of 100 to 1000 nM.
Turning to `CCC(C(=O)Nc1ccc(-c2cccnc2)cc1)c1csc(NS(=O)(=O)C2CC2)n1` (single isomer, unassigned) [T7, 2-(2-(cyclopropanesulfonamido)thiazol-4-yl)-N-(4-(pyridin-3-yl)phenyl)butanamide.HCl], the IC50 was less than 100 nM.
For `CCC(C(=O)Nc1ccc(-c2cncc(Cl)c2)cc1)c1csc(NS(=O)(=O)C2CC2)n1` (single isomer, unassigned) [T9, N-(4-(5-chloropyridin-3-yl)phenyl)-2-(2-(cyclopropanesulfonamido)thiazol-4-yl)butanamide.HCl], the IC50 is less than 100 nM.
Take `CCC(C(=O)Nc1ccc(-c2cncc(Cl)c2)cc1)c1csc(NS(=O)(=O)C2CC2)n1` (single isomer, unassigned) [T10, N-(4-(5-chloropyridin-3-yl)phenyl)-2-(2-(cyclopropanesulfonamido)thiazol-4-yl)butanamide.HCl]: the IC50 was less than 100 nM.
For the compound `CC(C)C(C(=O)Nc1ccc(-c2cccnc2)cc1)c1csc(NS(=O)(=O)C2CC2)n1` (single isomer, unassigned) [T13, 2-(2-(cyclopropanesulfonamido)thiazol-4-yl)-3-methyl-N-(4-(pyridin-3-yl)phenyl)butanamide.HCl], the IC50 was 100 to 1000 nM.
Consider `CC(C)C(C(=O)Nc1ccc(-c2cccnc2)cc1)c1csc(NS(=O)(=O)C2CC2)n1` (single isomer, unassigned) [T14, 2-(2-(cyclopropanesulfonamido)thiazol-4-yl)-3-methyl-N-(4-(pyridin-3-yl)phenyl)butanamide.HCl], for which the IC50 was 100 to 1000 nM.
Still for that read-out and setting: to `CCC(C(=O)Nc1ccc(-c2cncc(F)c2)cc1)c1csc(NS(=O)(=O)C2CC2)n1` (single isomer, unassigned) [T72] belongs less than 100 nM; to `CCC(C(=O)Nc1ccc(-c2cncc(C(F)(F)F)n2)cc1)c1csc(NS(=O)(=O)C2CC2)n1` (single isomer, unassigned) [T106], less than 100 nM; to `COc1cncc(-c2ccc(NC(=O)C(OC)c3csc(NS(=O)(=O)C4CC4)n3)cc2)n1` (single isomer, unassigned) [T107], less than 100 nM.
The same measure, in the same setting: the result for `CCOc1cncc(-c2ccc(NC(=O)C(CC)c3csc(NS(=O)(=O)C4CC4)n3)cc2)n1` (single isomer, unassigned) [T204] reads less than 100 nM; that for `CCC(C(=O)Nc1ccc(-c2cncc(OCC(F)(F)F)n2)cc1)c1csc(NS(=O)(=O)C2CC2)n1` (single isomer, unassigned) [T222], 100 to 1000 nM.
Consider `CCC(C(=O)Nc1ccc(-c2cncc(OCC(F)(F)F)n2)cc1)c1csc(NS(=O)(=O)C2CC2)n1` (single isomer, unassigned) [T223], for which the IC50 is less than 100 nM.
Turning to `CS(=O)(=O)Nc1nc(CC(=O)Nc2ccc(-c3ccccc3)cc2)cs1` [T1, N-([1,1′-biphenyl]-4-yl)-2-(2-(methylsulfonamido)thiazol-4-yl)acetamide], the IC50 was in the range of 1000 to 10000 nM.
With `CCC(CC)(C(=O)Nc1ccc(-c2cnccn2)cn1)c1csc(NS(=O)(=O)C2CC2)n1` [T3, 2-(2-(cyclopropanesulfonamido)thiazol-4-yl)-2-ethyl-N-(5-(pyrazin-2-yl)pyridin-2-yl)butanamide], the IC50 is 100 to 1000 nM.
Take `CC(C)(C(=O)Nc1ccc(-c2ncccn2)cc1)c1csc(NS(=O)(=O)C2CC2)n1` [T4, 2-(2-(cyclopropanesulfonamido)thiazol-4-yl)-2-methyl-N-(4-(pyrimidin-2-yl)phenyl)propanamide]: the IC50 was 1000 to 10000 nM.
Same read-out and setting: the result for `CC(C)C(C(=O)Nc1ccc(-c2cncnc2)cc1)c1csc(NS(=O)(=O)C2CC2)n1` (stereo not drawn) [T11, 2-(2-(cyclopropanesulfonamido)thiazol-4-yl)-3-methyl-N-(4-(pyrimidin-5-yl)phenyl)butanamide] reads 100 to 1000 nM.

The same experiment, now with this note: Table 18, additional potency data, 25° C., read-out: CTPS1 (Human CTPS1 Enzyme Inhibition data grouped by potency range).
For `CCOc1cncc(-c2ccc(NC(=O)C(OC)c3csc(NS(=O)(=O)C4CC4)n3)cc2)n1` (racemic) [T410, 2-(2-(cyclopropanesulfonamido)thiazol-4-yl)-N-(4-(6-ethoxypyrazin-2-yl)phenyl)-2-methoxyacetamide], the IC50 was less than 100 nM.
On the same count and under the same terms, the result for `CCOc1cncc(-c2ccc(NC(=O)C(OC)c3csc(NS(=O)(=O)C4CC4)n3)cc2)n1` (single isomer, unassigned) [T330, 2-(2-(cyclopropanesulfonamido)thiazol-4-yl)-N-(4-(6-ethoxypyrazin-2-yl)phenyl)-2-methoxyacetamide] reads less than 100 nM; that for `CCOc1cncc(-c2ccc(NC(=O)C(OC)c3csc(NS(=O)(=O)C4CC4)n3)cc2)n1` (single isomer, unassigned) [T331, 2-(2-(cyclopropanesulfonamido)thiazol-4-yl)-N-(4-(6-ethoxypyrazin-2-yl)phenyl)-2-methoxyacetamide], less than 100 nM; that for `CCOc1cncc(-c2ccc(NC(=O)C(CC)c3csc(NS(=O)(=O)C4CC4)n3)c(F)c2)n1` (single isomer, unassigned) [T412, 2-(2-(cyclopropanesulfonamido)thiazol-4-yl)-N-(4-(6-ethoxypyrazin-2-yl)-2-fluorophenyl)butanamide], less than 100 nM.
Same read-out and setting: the result for `CCOc1cncc(-c2ccc(NC(=O)C(CC)c3csc(NS(=O)(=O)C4CC4)n3)c(F)c2)n1` (single isomer, unassigned) [T413, 2-(2-(cyclopropanesulfonamido)thiazol-4-yl)-N-(4-(6-ethoxypyrazin-2-yl)-2-fluorophenyl)butanamide] reads less than 100 nM.
Turning to `CCC(C(=O)Nc1ccc(-c2cncc(C(F)(F)F)n2)cn1)c1csc(NS(=O)(=O)C2CC2)n1` (single isomer, unassigned) [T414, 2-(2-(cyclopropanesulfonamido)thiazol-4-yl)-N-(5-(6-(trifluoromethyl)pyrazin-2-yl)pyridin-2-yl)butanamide], the IC50 was less than 100 nM.
As for `CCC(C(=O)Nc1ccc(-c2cncc(C(F)(F)F)c2)cc1F)c1csc(NS(=O)(=O)C2CC2)n1` (single isomer, unassigned) [T415, 2-(2-(cyclopropanesulfonamido)thiazol-4-yl)-N-(2-fluoro-4-(5-(trifluoromethyl)pyridin-3-yl)phenyl)butanamide], the IC50 fell in the range of 100 to 1000 nM.
For the compound `CCC(C(=O)Nc1ccc(-c2cncc(C(F)(F)F)c2)cc1F)c1csc(NS(=O)(=O)C2CC2)n1` (single isomer, unassigned) [T416, 2-(2-(cyclopropanesulfonamido)thiazol-4-yl)-N-(2-fluoro-4-(5-(trifluoromethyl)pyridin-3-yl)phenyl)butanamide], the IC50 was less than 100 nM.
Consider `CCOc1cncc(-c2cnc(NC(=O)C(CC)c3csc(NS(=O)(=O)C4CC4)n3)c(F)c2)n1` (single isomer, unassigned) [T456], for which the IC50 is less than 100 nM.
On the same count and under the same terms, the result for `CCC(C(=O)Nc1ccc(-c2cncc(C(F)(F)F)n2)cc1F)c1csc(NS(=O)(=O)C2CC2)n1` (single isomer, unassigned) [T458] reads less than 100 nM; that for `COC(C(=O)Nc1ccc(-c2cncc(C(F)(F)F)n2)cc1F)c1csc(NS(=O)(=O)C2CC2)n1` (single isomer, unassigned) [T459], less than 100 nM.
